# Where two headings read alike, the source gives them in different places. Where a SMILES comes first, the peptide text is derived from it. Bridges are numbered along the chain shown (N, C = ends). [ ]: non-standard residue; d: D form. The star is where a group is joined. S(3-Methylbutyl) = CC(C)CCS*; dDab = NCC[C@@H](N)C(=O)O; dDap = NC[C@@H](N)C(=O)O; Dab = NCC[C@H](N)C(=O)O
# Key:
# Format in all cases: cell-based
# [1] = system: A. Baumanni (ATCC 19606)
# [2] = system: E. Coli (ATCC 25922)
# [3] = system: K. Pneumoniae (ATCC 13883)
# [4] = system: P. Aeruginosa (ATCC 27853)
# [5] = system: renal Proximal Tubular Epithelial Cells (PTECs); assay: Toxicity on renal Proximal Tubular Epithelial Cells
Molecule,MIC A. Baumanni (ATCC 19606) ([1]; ATCC 19606) [µg/mL],MIC E. Coli (ATCC 25922) ([2]; ATCC 25922) [µg/mL],MIC K. Pneumoniae (ATCC 13883) ([3]; ATCC 13883) [µg/mL],MIC P. Aeruginosa (ATCC 27853) ([4]; ATCC 27853) [µg/mL],MIC A. Baumanni (ATCC 19606) ([1]; strain ATCC 19606) [µg/mL],MIC E. Coli (ATCC 25922) ([2]; strain ATCC 25922) [µg/mL],MIC K. Pneumoniae (ATCC 13883) ([3]; strain ATCC 13883) [µg/mL],MIC P. Aeruginosa (ATCC 27853) ([4]; strain ATCC 27853) [µg/mL],PTEC Toxicity (relative to polymyxin B) [5],"PTEC Toxicity (relative to polymyxin B) ([5]; relative value, polymyxin B = 1)"
CC(C)CCSSC[C@@H](N)C(=O)N[C@H](C(=O)N[C@H](CO)C(=O)N[C@H]1CCNC(=O)[C@H]([C@@H](C)O)NC(=O)[C@H](CCN)NC(=O)[C@H](CCN)NC(=O)[C@H](CC(C)C)NC(=O)[C@@H](Cc2ccccc2)NC(=O)[C@H](CCN)NC1=O)[C@@H](C)O (H-[dC](S(3-Methylbutyl))T[dS][Dab][Dab][dF]L[Dab][Dab]T; lactam 4-C),0.25,2,0.5,4,,,,,21.2,
CC(C)CCSSC[C@@H](N)C(=O)N[C@H](C(=O)N[C@@H](CCN)C(=O)N[C@H]1CCNC(=O)[C@H]([C@@H](C)O)NC(=O)[C@H](CCN)NC(=O)[C@H](CCN)NC(=O)[C@H](CC(C)C)NC(=O)[C@@H](Cc2ccccc2)NC(=O)[C@H](CCN)NC1=O)[C@@H](C)O [drawing 95] (H-[dC](S(3-Methylbutyl))T[Dab][Dab][Dab][dF]L[Dab][Dab]T; lactam 4-C),1,1,0.5,1,,,,,4.7,
CC(C)CCSSC[C@@H](N)C(=O)N[C@H](C(=O)N[C@@H](CCN)C(=O)N[C@H]1CCNC(=O)[C@H]([C@@H](C)O)NC(=O)[C@H](CCN)NC(=O)[C@H](CCN)NC(=O)[C@H](CC(C)C)NC(=O)[C@@H](Cc2ccccc2)NC(=O)[C@H](CCN)NC1=O)[C@@H](C)O [drawing 140] (H-[dC](S(3-Methylbutyl))T[Dab][Dab][Dab][dF]L[Dab][Dab]T; lactam 4-C),0.5,1,0.5,1,,,,,9.8,

# Further lines, with some results ahead:
MIC A. Baumanni (ATCC 19606) ([1]; ATCC 19606) [µg/mL],MIC E. Coli (ATCC 25922) ([2]; ATCC 25922) [µg/mL],MIC K. Pneumoniae (ATCC 13883) ([3]; ATCC 13883) [µg/mL],MIC P. Aeruginosa (ATCC 27853) ([4]; ATCC 27853) [µg/mL],MIC A. Baumanni (ATCC 19606) ([1]; strain ATCC 19606) [µg/mL],MIC E. Coli (ATCC 25922) ([2]; strain ATCC 25922) [µg/mL],MIC K. Pneumoniae (ATCC 13883) ([3]; strain ATCC 13883) [µg/mL],MIC P. Aeruginosa (ATCC 27853) ([4]; strain ATCC 27853) [µg/mL],Molecule,PTEC Toxicity (relative to polymyxin B) [5],"PTEC Toxicity (relative to polymyxin B) ([5]; relative value, polymyxin B = 1)"
0.25,2,0.5,1,,,,,CC(C)CCSSC[C@@H](N)C(=O)N[C@H](C(=O)N[C@H](CCN)C(=O)N[C@H]1CCNC(=O)[C@H]([C@@H](C)O)NC(=O)[C@H](CCN)NC(=O)[C@H](CCN)NC(=O)[C@H](CC(C)C)NC(=O)[C@@H](Cc2ccccc2)NC(=O)[C@H](CCN)NC1=O)[C@@H](C)O (H-[dC](S(3-Methylbutyl))T[dDab][Dab][Dab][dF]L[Dab][Dab]T; lactam 4-C),7.1,
0.25,2,0.5,1,,,,,CC(C)CCSSC[C@@H](N)C(=O)N[C@H](C(=O)N[C@H](CN)C(=O)N[C@H]1CCNC(=O)[C@H]([C@@H](C)O)NC(=O)[C@H](CCN)NC(=O)[C@H](CCN)NC(=O)[C@H](CC(C)C)NC(=O)[C@@H](Cc2ccccc2)NC(=O)[C@H](CCN)NC1=O)[C@@H](C)O (H-[dC](S(3-Methylbutyl))T[dDap][Dab][Dab][dF]L[Dab][Dab]T; lactam 4-C),9.7,
,,,,0.25,1,0.25,1,Polymyxin B [reference compound],,1

# Reference: patent US20250171498A1, “ANTIBIOTIC COMPOUNDS, FORMULATIONS AND METHODS OF USE” (UNIVERSITEIT LEIDEN, priority 2022, published 2025)
